Data as given in ChEMBL document CHEMBL1157931 (Bioorg Med Chem, 2010).
The source made the active and inactive calls. The rule behind the calls is not given here.

Legend:
[1] = molecular target: ATP-dependent translocase ABCB1 (Homo sapiens, UniProt P08183); assay: Inhibition of human MDR1 expressed in MDCK cells assessed as fluorescence activity at 30 uM after 1.5 hrs by rhodamine 123 efflux test; format: cell-based
[2] = molecular target: T1, 5-hydroxytryptamine receptor 1A (Homo sapiens) (UniProt P08908); assay: Displacement of [3H]8-OH-DPAT from 5HT1A receptor expressed in HEK293 cells at 25 ug/ml after 2 hrs by liquid scintillation counting; format: cell-based
T1 sequence (whole entry): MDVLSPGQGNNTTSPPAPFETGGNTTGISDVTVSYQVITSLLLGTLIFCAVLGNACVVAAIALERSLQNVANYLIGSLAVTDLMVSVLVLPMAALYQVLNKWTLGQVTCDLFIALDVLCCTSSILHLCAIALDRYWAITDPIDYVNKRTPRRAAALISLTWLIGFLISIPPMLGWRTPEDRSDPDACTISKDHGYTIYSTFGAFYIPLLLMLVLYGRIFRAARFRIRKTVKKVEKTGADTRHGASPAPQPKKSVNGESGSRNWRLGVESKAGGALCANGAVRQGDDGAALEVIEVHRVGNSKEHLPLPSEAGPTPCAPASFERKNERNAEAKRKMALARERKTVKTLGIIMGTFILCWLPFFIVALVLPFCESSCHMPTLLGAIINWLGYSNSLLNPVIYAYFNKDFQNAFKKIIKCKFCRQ

[3] = molecular target: T1, 5-hydroxytryptamine receptor 1A (Homo sapiens); assay: Antagonist activity at 5HT1A receptor expressed in HEK293 cells assessed as inhibition of serotonin-induced [S35]GTPgammaS binding by scintillation counting; format: functional, cell-based
[4] = molecular target: T1, 5-hydroxytryptamine receptor 1A (Homo sapiens); assay: Antagonist activity at 5HT1A receptor expressed in HEK293 cells assessed as inhibition of 8-OH-DPAT-induced [S35]GTPgammaS binding by scintillation counting; format: functional, cell-based
[5] = molecular target: T2, 5-hydroxytryptamine receptor 1A (Homo sapiens, UniProt P08908); assay: Displacement of [3H]8-OH-DPAT from 5HT1A receptor expressed in HEK293 cells after 2 hrs by liquid scintillation counting; format: cell-based
T2 sequence (P08908 whole entry): T1 sequence (whole entry)

Caco-2 [6] = assay: Cytotoxicity against human Caco-2 cells at 50 ug/ml; format: cell-based
Caco-2 [7] = assay: Permeability in human Caco-2 cells assessed as passive diffusion after 3 hrs by HPLC; format: ADME, cell-based; details: caco-2, 3 h
[8] = molecular target: T1, 5-hydroxytryptamine receptor 1A (Homo sapiens); assay: Agonist activity at 5HT1A receptor expressed in HEK293 cells by [S35]GTPgammaS binding assay relative to 8-OH-DPAT; format: functional, cell-based; parameters: concentration or dose not given beside the values
[9] = molecular target: T1, 5-hydroxytryptamine receptor 1A (Homo sapiens); assay: Agonist activity at 5HT1A receptor expressed in HEK293 cells at >20 uM by [S35]GTPgammaS binding assay relative to 8-OH-DPAT; format: functional, cell-based

Chain of ATP-dependent translocase ABCB1 (P08183 whole entry): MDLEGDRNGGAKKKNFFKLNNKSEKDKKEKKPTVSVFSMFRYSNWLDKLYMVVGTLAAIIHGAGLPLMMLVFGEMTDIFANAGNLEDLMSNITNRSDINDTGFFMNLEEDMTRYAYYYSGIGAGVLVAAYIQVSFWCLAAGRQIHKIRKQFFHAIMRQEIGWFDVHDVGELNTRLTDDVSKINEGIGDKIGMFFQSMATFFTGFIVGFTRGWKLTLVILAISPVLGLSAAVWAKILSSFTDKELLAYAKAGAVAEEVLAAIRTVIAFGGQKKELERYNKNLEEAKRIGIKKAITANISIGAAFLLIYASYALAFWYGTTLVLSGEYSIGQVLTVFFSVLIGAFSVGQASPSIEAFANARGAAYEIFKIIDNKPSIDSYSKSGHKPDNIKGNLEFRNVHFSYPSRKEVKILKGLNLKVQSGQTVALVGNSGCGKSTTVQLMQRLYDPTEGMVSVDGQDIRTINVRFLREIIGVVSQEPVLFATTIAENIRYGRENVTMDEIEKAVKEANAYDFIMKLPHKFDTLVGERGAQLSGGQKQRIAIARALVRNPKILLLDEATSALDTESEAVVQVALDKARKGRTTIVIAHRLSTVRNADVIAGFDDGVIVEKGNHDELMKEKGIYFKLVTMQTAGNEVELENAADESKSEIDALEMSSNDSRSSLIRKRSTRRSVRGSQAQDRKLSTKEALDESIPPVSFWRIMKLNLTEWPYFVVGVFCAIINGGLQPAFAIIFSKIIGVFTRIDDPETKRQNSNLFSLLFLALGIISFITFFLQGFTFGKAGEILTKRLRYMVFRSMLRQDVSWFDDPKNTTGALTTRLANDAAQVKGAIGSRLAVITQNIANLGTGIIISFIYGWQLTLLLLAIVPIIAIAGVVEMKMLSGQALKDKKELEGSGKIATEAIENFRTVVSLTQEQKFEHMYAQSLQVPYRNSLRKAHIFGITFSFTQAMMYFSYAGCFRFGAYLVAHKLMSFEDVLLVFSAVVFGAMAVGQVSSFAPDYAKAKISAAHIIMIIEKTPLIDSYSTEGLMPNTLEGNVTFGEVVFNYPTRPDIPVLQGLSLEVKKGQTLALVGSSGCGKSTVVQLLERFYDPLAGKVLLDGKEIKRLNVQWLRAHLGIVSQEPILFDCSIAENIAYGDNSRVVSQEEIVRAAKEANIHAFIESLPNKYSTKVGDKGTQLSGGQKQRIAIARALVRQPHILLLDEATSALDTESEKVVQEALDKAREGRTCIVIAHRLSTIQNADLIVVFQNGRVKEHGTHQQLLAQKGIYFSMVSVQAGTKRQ

Structure (SMILES) | inhibition (INH) [1] | Activity [2] | Activity [3] | Activity [4] | Ki [5] | Activity (Caco-2 [6]) | permeability (Caco-2 [7]) | Activity [8] | Activity [9]
CC[C@]1(O)C[C@@H]2CN(CCc3c([nH]c4ccccc34)[C@@](C(=O)OC)(c3cc4c(cc3OC)N(C)[C@H]3[C@@](O)(C(=O)OC)[C@H](OC(C)=O)[C@]5(CC)C=CCN6CC[C@]43[C@@H]65)C2)C1 [VINBLASTINE] | Active | – | – | – | – | – | – | – | –
CCCCCCCCC/C(O)=C/C(=O)/C=C/c1ccc(O)c(OC)c1 | Not Active | > 50% | inactive | inactive | 3.59 µM | – | – | – | –
CCCCC[C@H](O)CC(=O)CCc1ccc(O)c(OC)c1 [GINGEROL] | Not Active | > 50% | inactive | inactive | > 100 µM | Non-toxic | 10% | – | –
CCCCCCC/C(O)=C/C(=O)/C=C/c1ccc(O)c(OC)c1 | Not Active | > 50% | inactive | inactive | 6.54 µM | – | – | – | –
CCCCCCCCC[C@H](O)CC(=O)CCc1ccc(O)c(OC)c1 | Not Active | > 50% | inactive | inactive | 3.74 µM | Non-toxic | 10% | > 10% | –
CCCCCCC/C=C/C(=O)CCc1ccc(O)c(OC)c1 | Not Active | > 50% | inactive | inactive | 13 µM | – | – | – | –
CCCCC/C=C/C(=O)CCc1ccc(O)c(OC)c1 [SHOGAOL] | Not Active | > 50% | inactive | inactive | 18 µM | – | – | – | –
CCCCCC(=O)/C=C(O)/C=C/c1ccc(O)c(OC)c1 | Not Active | > 50% | inactive | inactive | 6.53 µM | – | – | > 20% | inactive
CCCCCCCC(O)CCc1ccc(O)c(OC)c1 (configuration not stated) | – | – | – | – | 9.53 µM | – | – | > 10% | –
CCCCCCCCC/C=C/C(=O)CCc1ccc(O)c(OC)c1 | Not Active | > 50% | inactive | inactive | 5.84 µM | Non-toxic | 10% | > 20% | inactive
CCCCCCC[C@H](O)CC(=O)CCc1ccc(O)c(OC)c1 | Not Active | > 50% | inactive | inactive | 11.7 µM | Non-toxic | 10% | – | –
NCCc1c[nH]c2ccc(O)cc12 | – | – | – | – | – | – | – | 100% | –
